Assay results published in PubChem BioAssay AID1918958 (Molecular Pharmacology Branch, DTP, NCI, 2023).

Test system: NCI-H196 complex spheroid viability
Assay: Anticancer human tumor NCI-H196 cell line growth inhibition [LSD1];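 further: spheroids exposed to agents for 7 days before readout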;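 on viability, T/C: 100% = DMSO vehicle control viability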
Conditions: for IC50: curve of first compound; for viability, T/C: stronger effect = lower value
Method in brief: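 Complex spheroids of tumor cells with HUVEC and human MSCs, exposed to iadademstat combined with other agents. Each agent tested in half-log steps from near clinical Cmax (else 10 microM top), DMSO ≤0.25%.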

[1] = second compound 0.1 µM, first compound 0.000316 µM
[2] = second compound 0.1 µM, first compound 0.001 µM
[3] = second compound 0.1 µM, first compound 0.00316 µM
[4] = second compound 0.1 µM, first compound 0.01 µM
[5] = second compound 0.1 µM, first compound 0.0316 µM
[6] = second compound 0.1 µM, first compound 0.1 µM
[7] = second compound 0.316 µM, first compound 0.000316 µM
[8] = second compound 0.316 µM, first compound 0.001 µM
[9] = second compound 0.316 µM, first compound 0.00316 µM
[10] = second compound 0.316 µM, first compound 0.01 µM
[11] = second compound 0.316 µM, first compound 0.0316 µM
[12] = second compound 0.316 µM, first compound 0.1 µM
[13] = second compound 1 µM, first compound 0.000316 µM
[14] = second compound 1 µM, first compound 0.001 µM
[15] = second compound 1 µM, first compound 0.00316 µM
[16] = second compound 1 µM, first compound 0.01 µM
[17] = second compound 1 µM, first compound 0.0316 µM
[18] = second compound 1 µM, first compound 0.1 µM
[19] = second compound 3.16 µM, first compound 0.000316 µM
[20] = second compound 3.16 µM, first compound 0.001 µM
[21] = second compound 3.16 µM, first compound 0.00316 µM
[22] = second compound 3.16 µM, first compound 0.01 µM
[23] = second compound 3.16 µM, first compound 0.0316 µM
[24] = second compound 3.16 µM, first compound 0.1 µM
[25] = second compound 10 µM, first compound 0.000316 µM
[26] = second compound 10 µM, first compound 0.001 µM
[27] = second compound 10 µM, first compound 0.00316 µM
[28] = second compound 10 µM, first compound 0.01 µM
[29] = second compound 10 µM, first compound 0.0316 µM
[30] = second compound 10 µM, first compound 0.1 µM

| SMILES | IC50 (second compound 0.1 µM) | IC50 (second compound 0.316 µM) | IC50 (second compound 1 µM) | IC50 (second compound 3.16 µM) | IC50 (second compound 10 µM) | viability, T/C [1] | viability, T/C [2] | viability, T/C [3] | viability, T/C [4] | viability, T/C [5] | viability, T/C [6] | viability, T/C [7] | viability, T/C [8] | viability, T/C [9] | viability, T/C [10] | viability, T/C [11] | viability, T/C [12] | viability, T/C [13] | viability, T/C [14] | viability, T/C [15] | other results |
| --- | --- | --- | --- | --- | --- | --- | --- | --- | --- | --- | --- | --- | --- | --- | --- | --- | --- | --- | --- | --- | --- |
| CC(C)CC(NC(=O)C(Cc1ccccc1)NC(=O)c1cnccn1)B(O)O (stereo not given) + NC1CC1c1ccc(-c2cccc(O)c2)cc1 | 0.36 nM | 0.373 nM | 0.392 nM | 0.375 nM | < 0.316 nM | 55.9% | 3.85% | 4.59% | 4.04% | 1.83% | 0.7% | 57.6% | 4.64% | 3.15% | 2.27% | 1.73% | 0.55% | 60.4% | 4.41% | 3.18% | viability, T/C [16]: 2.18%; viability, T/C [17]: 1.28%; viability, T/C [18]: 0.5%; viability, T/C [19]: 58.1%; viability, T/C [20]: 3.39%; viability, T/C [21]: 2.47%; viability, T/C [22]: 1.72%; viability, T/C [23]: 1.87%; viability, T/C [24]: 0.31%; viability, T/C [25]: 42.5%; viability, T/C [26]: 2.54%; viability, T/C [27]: 2.01%; viability, T/C [28]: 1.21%; viability, T/C [29]: 0.62%; viability, T/C [30]: 0.38% |
| CC(C)CC(NC(=O)CNC(=O)c1cc(Cl)ccc1Cl)B1OC(=O)CC(CC(=O)O)(C(=O)O)O1 (stereo not given) + NC1CC1c1ccc(-c2cccc(O)c2)cc1 | 13.6 nM | 13.4 nM | 10.1 nM | 10.5 nM | 10.2 nM | 99.7% | 100% | 97.6% | 58.7% | 21.7% | 4.21% | 92.7% | 99.2% | 92.8% | 59.9% | 19% | 4.26% | 97.5% | 106% | 93.3% | viability, T/C [16]: 48.8%; viability, T/C [17]: 17%; viability, T/C [18]: 4.69%; viability, T/C [19]: 91%; viability, T/C [20]: 109%; viability, T/C [21]: 89.2%; viability, T/C [22]: 49.3%; viability, T/C [23]: 19.2%; viability, T/C [24]: 3.44%; viability, T/C [25]: 105%; viability, T/C [26]: 98.8%; viability, T/C [27]: 84.2%; viability, T/C [28]: 52.9%; viability, T/C [29]: 13.4%; viability, T/C [30]: 2.91% |
